Source: patent US20080194548A1, “Drug Combination Therapy and Pharmaceutical Compositions for Treating Inflammatory Disorders” (priority 2005, published 2008)

Legend:
Female C57BL/6 mice = test: MOGp35-55-induced disease activity model in mice (oral gavage, daily disease activity score); assay type: in vivo; details: single agent; for maximal extent and duration of disease activity: compared with control animals; for onset of disease symptoms: low and high doses, compared to animals that receive vehicle
cytokine TNFα = details: microglia and astrocytes; cited from earlier work
[1] = tested on: monocyte chemoattractant protein 1 (MCP1); details: human peripheral blood mononuclear cells or cultured endothelial cells; cited from earlier work
[2] = tested on: inducible nitric oxide synthetase (i-NOS); details: microglia and astrocytes; cited from earlier work

SMILES | maximal extent and duration of disease activity (Female C57BL/6 mice) | onset of disease symptoms (Female C57BL/6 mice) | inhibition of the cytokine TNFα (cytokine TNFα) | inhibition of MCP1 production [1] | inhibition of inducible nitric oxide synthetase (i-NOS) [2]
CC(C)[C@]1(C(=O)N2COc3ccc(C(F)(F)F)cc3C2)CC[C@@H](N2CC[C@@H](c3cccc(C(=O)O)c3)[C@H](C)C2)C1 (single isomer, unassigned) [Compound 4, 3-[(3S,4R or 3R,4S)-1-((1R,3S)-3-Isopropyl-3-{[6-(trifluoromethyl)-2H-1,3-benzoxazin-3(4H)-yl]carbonyl}cyclopentyl)-3-methylpiperidin-4-yl]benzoic acid] | reduced compared with control animals | delayed in a dose-dependent manner |  |  | 
CO[C@@H]1COCC[C@@H]1N[C@@H]1CC[C@@](C(=O)N2CCc3ncc(C(F)(F)F)cc3C2)(C(C)C)C1 [Compound 1, N-((1R,3S)-3-isopropyl-3-{[3-(trifluoromethyl)-7,8-dihydro-1,6-naphthyridin-6(5H)-yl]carbonyl}cyclopentyl)-N-[(3S,4S)-3-methoxytetrahydro-2H-pyran-4-yl]amine] | reduced compared with control animals | delayed in a dose-dependent manner |  |  | 
CC[C@H](C)C(=O)O[C@H]1C[C@@H](C)C=C2C=C[C@H](C)[C@H](CC[C@@H]3C[C@@H](O)CC(=O)O3)[C@H]21 [Lovastatin, lovastatin] |  |  | inhibit | inhibit | inhibit
CC(C)c1c(C(=O)Nc2ccccc2)c(-c2ccccc2)c(-c2ccc(F)cc2)n1CC[C@@H](O)C[C@@H](O)CC(=O)O [atorvastatin] | reduced compared with control animals | delayed in a dose-dependent manner |  |  | 
